Publication PMC7570625, “Design and Synthesis of a Novel NIR Celecoxib-Based Fluorescent Probe for Cyclooxygenase-2 Targeted Bioimaging in Tumor Cells” (Molecules, 2020)

Molecular target: T1, COX-2 (Homo sapiens, UniProt P35354)
T1 construct: gene PTGS2
T1 sequence (P35354 18-604): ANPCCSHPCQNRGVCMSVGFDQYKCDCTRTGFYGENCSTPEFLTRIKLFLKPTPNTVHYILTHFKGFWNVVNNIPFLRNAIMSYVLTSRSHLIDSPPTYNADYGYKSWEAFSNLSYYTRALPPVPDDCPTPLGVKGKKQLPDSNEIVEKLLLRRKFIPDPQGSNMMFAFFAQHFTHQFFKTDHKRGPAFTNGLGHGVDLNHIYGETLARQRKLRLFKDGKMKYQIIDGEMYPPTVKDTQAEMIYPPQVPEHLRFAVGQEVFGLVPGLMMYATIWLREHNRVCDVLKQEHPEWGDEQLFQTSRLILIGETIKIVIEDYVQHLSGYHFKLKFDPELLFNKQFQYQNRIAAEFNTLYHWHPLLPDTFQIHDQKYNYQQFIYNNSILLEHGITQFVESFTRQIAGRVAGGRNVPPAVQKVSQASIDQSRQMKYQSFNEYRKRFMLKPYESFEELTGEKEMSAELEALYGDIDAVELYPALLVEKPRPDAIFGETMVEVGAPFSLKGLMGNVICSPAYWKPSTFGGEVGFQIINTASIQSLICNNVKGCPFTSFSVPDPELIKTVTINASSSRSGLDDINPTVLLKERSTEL
Assay: recombinant human COX-2 inhibition, PGE2 measured by UPLC-MS/MS
Type: biochemical

IC50: 1570 nM
Compound: Cc1ccc(-c2cc(CNC(=O)CCCCC[N+]3=C(/C=C/C=C/C=C4/N(C)c5ccccc5C4(C)C)C(C)(C)c4ccccc43)nn2-c2ccc(S(N)(=O)=O)cc2)cc1 [CCY-5]
